Patent US4327085A, “Biologically active compositions and methods of use” (Agence National de Valorisation de la Recherache (ANVAR), priority 1973, dated 1982)

How the values were obtained:
[1] = test system: Klebsiella pneumoniae, strain of capsular type 2, biotype d; test: Anti-infectious protection of mice against Klebsiella pneumoniae infection; assay type: in vivo, hybrid mice (C57B1/6×AKR)F1; conditions: compound iv. 100 μg at -24 h; for % protection: difference of % survivors vs controls
[2] = test system: bovine serum albumin (BSA) antigen; test: Adjuvant activity in aqueous phase: anti-albumin antibody rate by passive hemagglutination; assay type: in vivo, Swiss mice; conditions: S.C., 100 μg with BSA 0.5 mg/animal in isotonic saline
Procedure: In the series of tests of which the results are indicated hereafter, the influence of the active principle according to the invention was assessed as bearing on the anti-albumin antibody rate, particularly under the following conditions.
Groups of 8 two-month-old Swiss mice received by subcutaneous injection (SC) or orally (PO) 0.5 mg of antigen constituted by the bovine serum albumin (BSA) with or without the substance tested in an isotonic saline solution. This large dose of antigen, because of its closeness to the limit paralysing dose with respect to the immunising response, elicits but a weak or no immune response in the controls; it therefore constitutes a severe criterion for showing the activity of an adjuvant substance. Thirty days later, the mice received, by the same method of administration, a further dose containing 0.1 mg of the same antigen.
The proportion of antibody was determined by passive hemagglutination by using sheep red blood cells treated with formalin and coated with the antigen studied according to the method described by A. A. HIRATA and M. W. […] (J. Immunol., 100, 641-648, 1968). Blood samples were taken 14, 28, 34 and 36 days after the first injection.

Structure (SMILES)	% survival D + 3 ([1]; K. pneumoniae im. 2 × 10^4) [%]	% survival D + 5 ([1]; K. pneumoniae im. 2 × 10^4) [%]	% survival D + 10 ([1]; K. pneumoniae im. 2 × 10^4) [%]	% protection ([1]; K. pneumoniae im. 2 × 10^4) [%]	% survival D + 3 ([1]; K. pneumoniae im. 1,5 × 10^4) [%]	% survival D + 5 ([1]; K. pneumoniae im. 1,5 × 10^4) [%]	% survival D + 10 ([1]; K. pneumoniae im. 1,5 × 10^4) [%]	% protection ([1]; K. pneumoniae im. 1,5 × 10^4) [%]	Titer of antibody 28th day [2]
CC(=O)N[C@H]1C(O)O[C@H](COC(C)=O)[C@@H](OC(C)=O)[C@@H]1O[C@H](C)C(=O)N[C@@H](C)C(=O)N[C@H](CCC(=O)O)C(N)=O (stereo partly drawn) [4,6-di-O-acetyl--Mur--NAc--L--Ala--D--Glu(OH)--NH2]	97	84	63	47	–	–	–	–	–
CC(=O)N[C@H]1C(O)O[C@H](COC(=O)CCC(=O)O)[C@@H](O)[C@@H]1O[C@H](C)C(=O)N[C@@H](C)C(=O)N[C@H](CCC(=O)O)C(N)=O (stereo partly drawn) [6-O-succinyl-Mur-NAc--L--Ala--D--Glu,(OH)--NH2]	100	91	63	44	–	–	–	–	–
CC(=O)N[C@@H]1[C@@H](O[C@H](C)C(=O)N[C@@H](C)C(=O)N[C@H](CCC(=O)O)C(N)=O)[C@H](O)[C@@H](CO)O[C@H]1O [Mur--NAc--L-Ala--D-Glu(OH)--NH2, Mur--NAc--L--Ala--D--Glu(OH)--NH2, reference compound]	–	–	–	–	83	66	60	47	25
CC(=O)N[C@H]1C(O)O[C@H](CO)[C@@H](O)[C@@H]1OCC(=O)N[C@@H](C)C(=O)N[C@H](CCC(=O)O)C(N)=O (stereo partly drawn) [norMur--NAc--L-Ala--D-Glu(OH)--NH2, 2(2-acetamido-2-deoxy-3-O-D-glucopyranosyl)-acetyl-L-alanyl-D-isoglutamine]	–	–	–	–	78	64	60	47	25
